US20070197590A1, “SUBSTITUTED DIPIPERIDINE CCR2 ANTAGONISTS” (priority 2006, published 2007)

Assays:
CCR2 = biological target: T1, CCR2 (Homo sapiens, UniProt P41597); test: MCP-1 Receptor Binding Assay in THP-1 Cells; details: THP-1 cells, 0.5 nM 125I labeled MCP-1, 2 hours at 30° C.; read-out: Inhibition of MCP-1 Binding IC50
T1 construct: host or cells: THP-1 cells
T1 sequence (P41597 1-360 isoform P41597-2): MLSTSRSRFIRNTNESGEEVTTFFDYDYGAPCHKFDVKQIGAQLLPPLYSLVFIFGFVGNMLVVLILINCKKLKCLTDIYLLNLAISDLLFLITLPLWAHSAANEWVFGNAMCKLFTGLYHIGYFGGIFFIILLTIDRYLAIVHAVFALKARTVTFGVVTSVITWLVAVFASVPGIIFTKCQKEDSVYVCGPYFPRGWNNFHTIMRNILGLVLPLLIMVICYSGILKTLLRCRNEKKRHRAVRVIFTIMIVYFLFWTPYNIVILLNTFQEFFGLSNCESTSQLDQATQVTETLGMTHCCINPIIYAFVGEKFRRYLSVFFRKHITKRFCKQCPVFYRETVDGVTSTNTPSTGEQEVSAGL
Summary of the method: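 Whole THP-1 cells incubated 2 h at 30° C with 0.5 nM 125I-MCP-1 and varying compound concentrations; bound radioactivity harvested on filters and counted by scintillation. Nonspecific binding with 1 μM cold MCP-1; IC50 for inhibition of binding versus vehicle.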

[1] = tested on: MCP-1 induced calcium ion influx in THP-1 cells; test: MCP-1 Induced Calcium Mobilization in THP-1 Cells; format: cell-based; details: Homo sapiens, THP-1, THP-1 cells, 0.2 μM MCP-1, FLIPR; read-out: Inhibition of MCP-1 Induced Calcium Ion Influx IC50
Summary of the method: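 Fluo-3-loaded (5 μM, 45 min) THP-1 cells preincubated 15 min with compound. Calcium change after 0.2 μM MCP-1 addition read by FLIPR relative to vehicle; IC50 values derived.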

[2] = tested on: MCP-1 induced chemotaxis of THP-1 cells; test: MCP-1 Induced Chemotaxis in THP-1 Cells; format: cell-based; details: Homo sapiens, MCP-1 0.01 μg/mL, 3 hours at 37° C., read-out: Inhibition of MCP-1 Induced Chemotaxis IC50
Protocol: MCP-1 induced chemotaxis was run in a 24-well chemotaxis chamber. MCP-1 (0.01 μg/mL) was added to the lower chamber and 100 μL of THP-1 cells (1×10^7 cell/mL) was added to the top chamber. Varying concentrations of test compound were added to the top and bottom chambers. Cells were allowed to chemotax for 3 hours at 37° C. and 5% CO2. An aliquot of the cells that had migrated to the bottom chamber was taken and counted then compared to vehicle.
Table 3 lists IC50 values for inhibition of MCP-1 induced chemotaxis.

Structure (SMILES) | IC50 (CCR2) | IC50 [1] | IC50 [2]
O=C(/C=C/c1ccc(F)c(F)c1)N1CCC(O)(C(O)CN2CCC(c3c[nH]c4ccc(F)cc34)CC2)CC1 (stereo not drawn) [Compound 156] | 120 nM | 4000 nM | 360 nM
O=C(/C=C/c1cc(F)cc(F)c1)N1CCC(O)(C(O)CN2CCC(c3c[nH]c4ccc(F)cc34)CC2)CC1 (stereo not drawn) [Compound 157] | 150 nM | 1900 nM | 120 nM
O=C(Nc1ccc(Cl)c(Cl)c1)N1CCC(O)(C(O)CN2CCC(c3ccc(Cl)cc3)CC2)CC1 (stereo not drawn) [Compound 165, 4-{2-[4-(4-chloro-phenyl)-piperidin-1-yl]-1-hydroxy-ethyl}-4-hydroxy-piperidine-1-carboxylic acid (3,4-dichloro-phenyl)-amide] | 50 nM | 900 nM | 120 nM
O=C(Nc1ccc(Cl)c(Cl)c1)N1CCC(O)(C(O)CN2CCC(c3c[nH]c4ccc(F)cc34)CC2)CC1 (stereo not drawn) [Compound 167, 4-{2-[4-(5-fluoro-1H-indol-3-yl)-piperidin-1-yl]-1-hydroxy-ethyl}-4-hydroxy-piperidine-1-carboxylic acid (3,4-dichloro-phenyl)-amide] | 460 nM | 940 nM | 4 nM
O=C(Nc1ccc(Cl)c(Cl)c1)N1CCC(O)(C(O)CN2CCC(c3c[nH]c4ccc(N5CCOCC5)cc34)CC2)CC1 (stereo not drawn) [Compound 181, 4-hydroxy-4-{1-hydroxy-2-[4-(5-morpholin-4-yl-1H-indol-3-yl)-piperidin-1-yl]-ethyl}-piperidine-1-carboxylic acid (3,4-dichloro-phenyl)-amide] | 270 nM | 2100 nM | 180 nM

Further lines, results first:

IC50 (CCR2) | IC50 [1] | IC50 [2] | Structure (SMILES)
0.2 nM | 120 nM | 5 nM | O=C(/C=C/c1cc(F)c(F)c(F)c1)N1CCC(O)(C(O)CN2CCC(c3ccc(Cl)cc3)CC2)CC1 (stereo not drawn) [Compound 163]
50 nM | 60 nM | 2 nM | O=C(/C=C/c1cc(F)cc(F)c1)N1CCC(O)(C(O)CN2CCC(c3ccc(Cl)cc3)CC2)CC1 (stereo not drawn) [Compound 164]
